Laboratory results: PMC10150365 (Journal of Medicinal Chemistry, 2023)

Columns and labels:
PPARγ = target: T1, PPARγ (Homo sapiens, UniProt P37231); assay: Cerep SafetyScreen-87; format: binding; details: n=2
T1 construct: purchased Eurofins Cerep/Panlabs SafetyScreen-87

Opiate K (OP2, KOP) = target: T2, Opiate K (OP2, KOP) (Homo sapiens, UniProt P41145); assay: Cerep SafetyScreen-87; format: binding; details: n=2
T2 construct: purchased Eurofins Cerep/Panlabs SafetyScreen-87

Cyclooxigenase COX-2 = target: T3, Cyclooxigenase COX-2 (Homo sapiens, UniProt P35354); assay: Cerep SafetyScreen-87; format: biochemical; details: n=2
T3 construct: purchased Eurofins Cerep/Panlabs SafetyScreen-87

Melanocortin MC1 = target: T4, Melanocortin MC1 (Homo sapiens, UniProt Q01726); assay: Cerep SafetyScreen-87; format: binding; details: n=2
T4 construct: purchased Eurofins Cerep/Panlabs SafetyScreen-87

Glucocorticoid = target: T5, Glucocorticoid (Homo sapiens, UniProt P04150); assay: Cerep SafetyScreen-87; format: binding; details: n=2
T5 construct: purchased Eurofins Cerep/Panlabs SafetyScreen-87

Cholecystokinin (CCKB) = target: T6, Cholecystokinin (CCKB) (Homo sapiens, UniProt P32239); assay: Cerep SafetyScreen-87; format: binding; details: n=2
T6 construct: purchased Eurofins Cerep/Panlabs SafetyScreen-87

Muscarinic M1 = target: T7, Muscarinic M1 (Homo sapiens, UniProt P11229); assay: Cerep SafetyScreen-87; format: binding; details: n=2
T7 construct: purchased Eurofins Cerep/Panlabs SafetyScreen-87

[1] = target: T8, Transporter, Serotonin (5-Hydroxytryptamine) (SERT) (Homo sapiens, UniProt P31645); assay: Cerep SafetyScreen-87; format: binding; details: n=2
T8 construct: purchased Eurofins Cerep/Panlabs SafetyScreen-87

[2] = target: T9, Transporter, Dopamine (DAT) (Homo sapiens, UniProt Q01959); assay: Cerep SafetyScreen-87; format: binding; details: n=2
T9 construct: purchased Eurofins Cerep/Panlabs SafetyScreen-87

Adenosine A2A [3] = target: T10, Adenosine A2A (Homo sapiens, UniProt P29274); format: cell-based; design: Cerep (contract assay) test=2527; details: functional assay, antagonist mode; read-out: adenosine A2A antagonism IC50
GABAB1A = target: T11, GABAB1A (Homo sapiens, UniProt Q9UBS5); assay: Cerep SafetyScreen-87; format: binding; details: n=2
T11 construct: purchased Eurofins Cerep/Panlabs SafetyScreen-87

Angiotensin AT1 = target: T12, Angiotensin AT1 (Homo sapiens, UniProt P30556); assay: Cerep SafetyScreen-87; format: binding; details: n=2
T12 construct: purchased Eurofins Cerep/Panlabs SafetyScreen-87

Melanocortin MC4 = target: T13, Melanocortin MC4 (Homo sapiens, UniProt P32245); assay: Cerep SafetyScreen-87; format: binding; details: n=2
T13 construct: purchased Eurofins Cerep/Panlabs SafetyScreen-87

Adenosine A1 = target: T14, Adenosine A1 (Homo sapiens, UniProt P30542); assay: Cerep SafetyScreen-87; format: binding; details: n=2
T14 construct: purchased Eurofins Cerep/Panlabs SafetyScreen-87

Calcium Channel N-type = target: T15, Calcium Channel N-type (Rattus norvegicus, UniProt Q02294); assay: Cerep SafetyScreen-87; format: binding; details: n=2
T15 construct: purchased Eurofins Cerep/Panlabs SafetyScreen-87

Adrenergic α2B = target: T16, Adrenergic α2B (Homo sapiens, UniProt P18089); assay: Cerep SafetyScreen-87; format: binding; details: n=2
T16 construct: purchased Eurofins Cerep/Panlabs SafetyScreen-87

Adrenergic α1A = target: T17, Adrenergic α1A (Rattus norvegicus, UniProt P43140); assay: Cerep SafetyScreen-87; format: binding; details: n=2
T17 construct: purchased Eurofins Cerep/Panlabs SafetyScreen-87

[4] = target: T18, Serotonin (5-Hydroxytryptamine) 5-HT2A (Homo sapiens, UniProt P28223); assay: Cerep SafetyScreen-87; format: binding; details: n=2
T18 construct: purchased Eurofins Cerep/Panlabs SafetyScreen-87

Adrenergic β2 = target: T19, Adrenergic β2 (Homo sapiens, UniProt P07550); assay: Cerep SafetyScreen-87; format: binding; details: n=2
T19 construct: purchased Eurofins Cerep/Panlabs SafetyScreen-87

Adrenergic α1D = target: T20, Adrenergic α1D (Homo sapiens, UniProt P25100); assay: Cerep SafetyScreen-87; format: binding; details: n=2
T20 construct: purchased Eurofins Cerep/Panlabs SafetyScreen-87

Monoamine Oxidase MAO-B = target: T21, Monoamine Oxidase MAO-B (Homo sapiens, UniProt P27338); assay: Cerep SafetyScreen-87; format: biochemical; details: n=2
T21 construct: purchased Eurofins Cerep/Panlabs SafetyScreen-87

Estrogen ERα = target: T22, Estrogen ERα (Homo sapiens, UniProt P03372); assay: Cerep SafetyScreen-87; format: binding; details: n=2
T22 construct: purchased Eurofins Cerep/Panlabs SafetyScreen-87

Endothelin ETA = target: T23, Endothelin ETA (Homo sapiens, UniProt P25101); assay: Cerep SafetyScreen-87; format: binding; details: n=2
T23 construct: purchased Eurofins Cerep/Panlabs SafetyScreen-87

Bradykinin B2 = target: T24, Bradykinin B2 (Homo sapiens, UniProt P30411); assay: Cerep SafetyScreen-87; format: binding; details: n=2
T24 construct: purchased Eurofins Cerep/Panlabs SafetyScreen-87

Muscarinic M2 = target: T25, Muscarinic M2 (Homo sapiens, UniProt P08172); assay: Cerep SafetyScreen-87; format: binding; details: n=2
T25 construct: purchased Eurofins Cerep/Panlabs SafetyScreen-87

Histamine H1 = target: T26, Histamine H1 (Homo sapiens, UniProt P35367); assay: Cerep SafetyScreen-87; format: binding; details: n=2
T26 construct: purchased Eurofins Cerep/Panlabs SafetyScreen-87

[5] = target: T27, Peptidase, Angiotensin Converting Enzyme (Oryctolagus cuniculus, UniProt P12822); assay: Cerep SafetyScreen-87; format: biochemical, rabbit; details: n=2
T27 construct: purchased Eurofins Cerep/Panlabs SafetyScreen-87

[6] = target: T28, Peptidase, CTSG (Cathepsin G) (Homo sapiens, UniProt P08311); assay: Cerep SafetyScreen-87; format: biochemical; details: n=2
T28 construct: purchased Eurofins Cerep/Panlabs SafetyScreen-87

Tachykinin NK1 = target: T29, Tachykinin NK1 (Homo sapiens, UniProt P25103); assay: Cerep SafetyScreen-87; format: binding; details: n=2
T29 construct: purchased Eurofins Cerep/Panlabs SafetyScreen-87

[7] = target: T30, Serotonin (5-Hydroxytryptamine) 5-HT3 (Homo sapiens, UniProt P46098); assay: Cerep SafetyScreen-87; format: binding; details: n=2
T30 construct: purchased Eurofins Cerep/Panlabs SafetyScreen-87

Monoamine Oxidase MAO-A = target: T31, Monoamine Oxidase MAO-A (Homo sapiens, UniProt P21397); assay: Cerep SafetyScreen-87; format: biochemical; details: n=2
T31 construct: purchased Eurofins Cerep/Panlabs SafetyScreen-87

[8] = target: T32, Leukotriene, Cysteinyl CysLT1 (Homo sapiens, UniProt Q9Y271); assay: Cerep SafetyScreen-87; format: binding; details: n=2
T32 construct: purchased Eurofins Cerep/Panlabs SafetyScreen-87

Chemokine CCR1 = target: T33, Chemokine CCR1 (Homo sapiens, UniProt P32246); assay: Cerep SafetyScreen-87; format: binding; details: n=2
T33 construct: purchased Eurofins Cerep/Panlabs SafetyScreen-87

[9] = target: T34, Protein Tyrosine Kinase, LCK (Homo sapiens, UniProt P06239); assay: Cerep SafetyScreen-87; format: biochemical; details: n=2
T34 construct: purchased Eurofins Cerep/Panlabs SafetyScreen-87

Opiate µ (OP3, MOP) = target: T35, Opiate µ (OP3, MOP) (Homo sapiens, UniProt P35372); assay: Cerep SafetyScreen-87; format: binding; details: n=2
T35 construct: purchased Eurofins Cerep/Panlabs SafetyScreen-87

Cannabinoid CB1 = target: T36, Cannabinoid CB1 (Homo sapiens, UniProt P21554); assay: Cerep SafetyScreen-87; format: binding; details: n=2
T36 construct: purchased Eurofins Cerep/Panlabs SafetyScreen-87

[10] = target: T37, Protein Tyrosine Kinase, Insulin Receptor (Homo sapiens, UniProt P06213); assay: Cerep SafetyScreen-87; format: biochemical; details: n=2
T37 construct: purchased Eurofins Cerep/Panlabs SafetyScreen-87

Adenosine A2A [11] = target: T10, Adenosine A2A; assay: Cerep SafetyScreen-87; format: binding; design: purchased Eurofins Cerep/Panlabs SafetyScreen-87; details: n=2
Chemokine CXCR2 (IL-8RB) = target: T38, Chemokine CXCR2 (IL-8RB) (Homo sapiens, UniProt P25025); assay: Cerep SafetyScreen-87; format: binding; details: n=2
T38 construct: purchased Eurofins Cerep/Panlabs SafetyScreen-87

[12] = target: T39, Serotonin (5-Hydroxytryptamine) 5-HT1B (Homo sapiens, UniProt P28222); assay: Cerep SafetyScreen-87; format: binding; details: n=2
T39 construct: purchased Eurofins Cerep/Panlabs SafetyScreen-87

[13] = target: T40, Serotonin (5-Hydroxytryptamine) 5-HT2C (Homo sapiens, UniProt P28335); assay: Cerep SafetyScreen-87; format: binding; details: n=2
T40 construct: purchased Eurofins Cerep/Panlabs SafetyScreen-87
T40 sequence (P28335 33-458): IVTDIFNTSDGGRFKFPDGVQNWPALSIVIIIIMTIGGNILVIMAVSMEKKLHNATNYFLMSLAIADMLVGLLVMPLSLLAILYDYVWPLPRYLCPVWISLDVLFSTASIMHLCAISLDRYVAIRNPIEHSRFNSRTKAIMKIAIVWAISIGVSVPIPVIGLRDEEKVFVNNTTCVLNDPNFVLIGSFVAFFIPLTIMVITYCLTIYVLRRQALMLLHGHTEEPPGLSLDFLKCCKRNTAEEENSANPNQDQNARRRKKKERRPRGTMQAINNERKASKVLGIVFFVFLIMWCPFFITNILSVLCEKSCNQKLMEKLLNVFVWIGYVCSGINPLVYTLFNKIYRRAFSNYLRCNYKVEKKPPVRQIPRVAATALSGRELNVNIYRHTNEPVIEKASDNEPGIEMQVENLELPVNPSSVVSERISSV

T10 sequence (P29274 whole entry): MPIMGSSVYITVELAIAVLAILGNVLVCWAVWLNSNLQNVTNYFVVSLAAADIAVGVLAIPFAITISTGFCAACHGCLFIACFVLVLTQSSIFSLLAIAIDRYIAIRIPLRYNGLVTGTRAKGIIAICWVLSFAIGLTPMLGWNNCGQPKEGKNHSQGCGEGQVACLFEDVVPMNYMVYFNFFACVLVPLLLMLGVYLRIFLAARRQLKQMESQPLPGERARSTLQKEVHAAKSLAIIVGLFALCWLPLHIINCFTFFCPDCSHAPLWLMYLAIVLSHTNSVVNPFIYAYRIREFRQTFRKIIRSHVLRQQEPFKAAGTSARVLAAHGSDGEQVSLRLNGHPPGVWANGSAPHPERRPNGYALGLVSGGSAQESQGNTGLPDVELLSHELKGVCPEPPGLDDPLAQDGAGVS
T31 sequence (P21397 whole entry): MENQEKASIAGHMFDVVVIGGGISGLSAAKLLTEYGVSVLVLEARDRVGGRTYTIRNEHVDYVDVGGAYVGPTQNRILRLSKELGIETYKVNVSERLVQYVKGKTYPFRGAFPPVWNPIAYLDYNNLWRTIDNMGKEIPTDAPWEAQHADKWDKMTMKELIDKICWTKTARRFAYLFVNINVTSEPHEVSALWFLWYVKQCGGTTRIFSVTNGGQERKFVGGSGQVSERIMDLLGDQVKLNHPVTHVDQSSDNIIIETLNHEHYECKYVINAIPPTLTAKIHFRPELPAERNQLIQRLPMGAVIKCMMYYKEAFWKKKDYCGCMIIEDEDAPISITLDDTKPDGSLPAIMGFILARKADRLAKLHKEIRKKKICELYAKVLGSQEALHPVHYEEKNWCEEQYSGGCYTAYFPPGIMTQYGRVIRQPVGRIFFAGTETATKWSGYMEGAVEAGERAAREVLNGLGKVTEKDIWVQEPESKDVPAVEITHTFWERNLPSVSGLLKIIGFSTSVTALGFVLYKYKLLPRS
T11 sequence (Q9UBS5 15-961 limits assumed): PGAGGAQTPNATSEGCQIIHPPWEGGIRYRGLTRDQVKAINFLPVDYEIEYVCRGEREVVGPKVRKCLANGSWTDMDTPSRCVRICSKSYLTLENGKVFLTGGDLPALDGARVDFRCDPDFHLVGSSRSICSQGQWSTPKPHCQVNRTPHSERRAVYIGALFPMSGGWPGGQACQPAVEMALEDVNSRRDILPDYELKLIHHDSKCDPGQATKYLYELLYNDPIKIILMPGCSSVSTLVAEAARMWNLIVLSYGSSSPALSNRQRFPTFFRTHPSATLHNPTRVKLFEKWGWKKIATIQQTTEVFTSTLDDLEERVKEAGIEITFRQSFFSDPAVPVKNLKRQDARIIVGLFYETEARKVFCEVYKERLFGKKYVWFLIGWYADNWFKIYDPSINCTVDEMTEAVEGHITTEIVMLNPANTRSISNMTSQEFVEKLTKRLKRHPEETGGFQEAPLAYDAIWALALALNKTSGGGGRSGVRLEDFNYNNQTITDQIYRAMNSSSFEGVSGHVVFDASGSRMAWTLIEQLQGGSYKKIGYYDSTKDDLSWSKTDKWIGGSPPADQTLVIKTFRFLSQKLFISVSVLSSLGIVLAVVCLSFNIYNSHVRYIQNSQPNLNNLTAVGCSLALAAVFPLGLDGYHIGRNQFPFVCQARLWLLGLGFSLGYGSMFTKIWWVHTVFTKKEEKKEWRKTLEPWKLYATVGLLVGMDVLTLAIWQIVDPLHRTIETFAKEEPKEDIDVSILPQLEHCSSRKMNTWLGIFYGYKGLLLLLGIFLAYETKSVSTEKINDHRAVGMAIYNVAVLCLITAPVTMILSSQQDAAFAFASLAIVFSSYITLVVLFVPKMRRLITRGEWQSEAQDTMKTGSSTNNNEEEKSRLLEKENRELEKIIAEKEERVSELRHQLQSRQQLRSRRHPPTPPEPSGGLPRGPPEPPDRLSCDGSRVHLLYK
T11 sequence (O75899 42-941 partner): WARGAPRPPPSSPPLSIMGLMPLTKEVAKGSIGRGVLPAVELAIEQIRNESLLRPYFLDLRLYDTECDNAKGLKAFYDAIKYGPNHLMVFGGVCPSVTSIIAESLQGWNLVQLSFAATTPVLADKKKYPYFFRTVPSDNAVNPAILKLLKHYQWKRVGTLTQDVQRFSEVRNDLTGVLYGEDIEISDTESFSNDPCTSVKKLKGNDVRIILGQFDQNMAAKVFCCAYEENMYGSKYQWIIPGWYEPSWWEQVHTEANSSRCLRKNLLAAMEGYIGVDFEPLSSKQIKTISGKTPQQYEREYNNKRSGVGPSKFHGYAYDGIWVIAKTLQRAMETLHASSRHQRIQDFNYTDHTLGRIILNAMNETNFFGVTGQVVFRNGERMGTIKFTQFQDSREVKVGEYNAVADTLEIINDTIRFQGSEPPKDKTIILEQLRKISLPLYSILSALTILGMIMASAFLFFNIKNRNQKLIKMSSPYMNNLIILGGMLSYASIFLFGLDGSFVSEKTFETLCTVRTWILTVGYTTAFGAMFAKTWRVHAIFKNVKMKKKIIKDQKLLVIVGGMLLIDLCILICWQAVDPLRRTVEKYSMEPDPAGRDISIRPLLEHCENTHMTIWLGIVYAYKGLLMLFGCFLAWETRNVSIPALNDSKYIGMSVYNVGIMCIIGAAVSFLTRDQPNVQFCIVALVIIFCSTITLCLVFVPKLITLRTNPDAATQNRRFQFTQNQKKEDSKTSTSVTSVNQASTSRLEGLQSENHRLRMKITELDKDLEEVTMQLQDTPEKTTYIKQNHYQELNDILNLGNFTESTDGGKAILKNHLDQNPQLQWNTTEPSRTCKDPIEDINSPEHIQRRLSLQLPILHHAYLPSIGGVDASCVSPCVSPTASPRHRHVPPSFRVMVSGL
T33 sequence (P32246 whole entry): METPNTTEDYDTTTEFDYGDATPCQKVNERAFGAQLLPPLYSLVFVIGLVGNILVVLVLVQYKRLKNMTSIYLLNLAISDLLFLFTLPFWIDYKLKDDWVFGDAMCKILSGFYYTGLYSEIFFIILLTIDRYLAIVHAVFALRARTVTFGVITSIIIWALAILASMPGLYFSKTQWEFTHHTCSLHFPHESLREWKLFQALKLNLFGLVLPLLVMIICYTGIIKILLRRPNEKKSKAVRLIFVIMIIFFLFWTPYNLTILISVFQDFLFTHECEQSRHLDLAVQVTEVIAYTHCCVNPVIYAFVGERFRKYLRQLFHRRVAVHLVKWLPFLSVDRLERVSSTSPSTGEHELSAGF
T21 sequence (P27338 whole entry): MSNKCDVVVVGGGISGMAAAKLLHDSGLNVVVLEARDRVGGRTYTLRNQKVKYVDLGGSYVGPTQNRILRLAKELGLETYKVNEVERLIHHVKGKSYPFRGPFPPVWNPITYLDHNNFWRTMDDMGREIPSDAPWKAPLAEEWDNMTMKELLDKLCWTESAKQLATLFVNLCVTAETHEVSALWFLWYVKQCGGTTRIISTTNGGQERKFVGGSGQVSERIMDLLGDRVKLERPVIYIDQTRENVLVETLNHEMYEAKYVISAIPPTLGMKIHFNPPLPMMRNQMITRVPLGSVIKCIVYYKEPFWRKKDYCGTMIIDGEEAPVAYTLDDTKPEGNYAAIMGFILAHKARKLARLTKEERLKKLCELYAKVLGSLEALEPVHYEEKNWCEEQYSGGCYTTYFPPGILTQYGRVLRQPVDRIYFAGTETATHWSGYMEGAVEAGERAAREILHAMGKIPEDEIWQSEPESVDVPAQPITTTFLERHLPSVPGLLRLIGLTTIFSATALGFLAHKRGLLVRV
T19 sequence (P07550 whole entry): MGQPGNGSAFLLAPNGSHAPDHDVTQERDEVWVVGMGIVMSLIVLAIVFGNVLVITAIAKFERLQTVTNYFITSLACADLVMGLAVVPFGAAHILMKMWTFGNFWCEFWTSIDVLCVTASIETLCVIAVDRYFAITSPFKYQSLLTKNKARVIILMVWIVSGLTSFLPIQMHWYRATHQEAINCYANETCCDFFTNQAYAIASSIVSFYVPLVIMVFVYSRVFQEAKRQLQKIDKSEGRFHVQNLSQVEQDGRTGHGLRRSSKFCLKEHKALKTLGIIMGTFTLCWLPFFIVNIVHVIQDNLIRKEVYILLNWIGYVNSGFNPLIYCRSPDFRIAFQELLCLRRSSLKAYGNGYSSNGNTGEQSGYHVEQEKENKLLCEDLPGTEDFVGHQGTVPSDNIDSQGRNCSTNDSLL
T18 sequence (P28223 whole entry, looked up): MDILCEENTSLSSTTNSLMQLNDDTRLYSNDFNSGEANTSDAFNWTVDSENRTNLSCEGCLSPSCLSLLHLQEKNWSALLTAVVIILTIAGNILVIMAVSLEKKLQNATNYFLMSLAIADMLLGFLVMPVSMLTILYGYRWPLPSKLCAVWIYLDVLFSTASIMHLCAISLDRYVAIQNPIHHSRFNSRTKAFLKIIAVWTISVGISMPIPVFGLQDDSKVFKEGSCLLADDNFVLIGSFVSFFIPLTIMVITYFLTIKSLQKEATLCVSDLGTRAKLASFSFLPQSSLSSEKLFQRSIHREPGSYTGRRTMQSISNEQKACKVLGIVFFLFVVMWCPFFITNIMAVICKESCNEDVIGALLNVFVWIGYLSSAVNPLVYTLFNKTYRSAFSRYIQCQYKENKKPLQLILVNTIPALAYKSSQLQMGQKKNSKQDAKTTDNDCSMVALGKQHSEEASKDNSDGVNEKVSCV

Compound: CCN1CCN(Cc2ccc3cc(C(=O)Nc4cc(NC(=O)c5ccc6c(c5)OCCO6)ccc4F)ccc3n2)CC1 [Compound 22, N-(5-(2,3-Dihydrobenzo[b][1,4]dioxine-6-carboxamido)-2-fluorophenyl)-2-((4-ethylpiperazin-1-yl)methyl)quinoline-6-carboxamide]
- inhibition at 10 µM (PPARγ): 11%
- inhibition at 10 µM (Opiate K (OP2, KOP)): 51%
- inhibition at 10 µM (Cyclooxigenase COX-2): -5%
- inhibition at 10 µM (Melanocortin MC1): -3%
- inhibition at 10 µM (Glucocorticoid): 9%
- inhibition at 10 µM (Cholecystokinin (CCKB)): -4%
- inhibition at 10 µM (Muscarinic M1): 43%
- inhibition at 10 µM [1]: 25%
- inhibition at 10 µM [2]: 38%
- IC50 (Adenosine A2A [3]): 2000 nM
- inhibition at 10 µM (GABAB1A): 4%
- inhibition at 10 µM (Angiotensin AT1): 1%
- inhibition at 10 µM (Melanocortin MC4): 2%
- inhibition at 10 µM (Adenosine A1): 11%
- inhibition at 10 µM (Calcium Channel N-type): 9%
- inhibition at 10 µM (Adrenergic α2B): 79%
- inhibition at 10 µM (Adrenergic α1A): 38%
- inhibition at 10 µM [4]: 64%
- inhibition at 10 µM (Adrenergic β2): 12%
- inhibition at 10 µM (Adrenergic α1D): 25%
- inhibition at 10 µM (Monoamine Oxidase MAO-B): 36%
- inhibition at 10 µM (Estrogen ERα): -1%
- inhibition at 10 µM (Endothelin ETA): -2%
- inhibition at 10 µM (Bradykinin B2): 0%
- inhibition at 10 µM (Muscarinic M2): 52%
- inhibition at 10 µM (Histamine H1): 36%
- inhibition at 10 µM [5]: 13%
- inhibition at 10 µM [6]: 1%
- inhibition at 10 µM (Tachykinin NK1): 14%
- inhibition at 10 µM [7]: -10%
- inhibition at 10 µM (Monoamine Oxidase MAO-A): 77%
- inhibition at 10 µM [8]: 7%
- inhibition at 10 µM (Chemokine CCR1): 2%
- inhibition at 10 µM [9]: -8%
- inhibition at 10 µM (Opiate µ (OP3, MOP)): 44%
- inhibition at 10 µM (Cannabinoid CB1): 9%
- inhibition at 10 µM [10]: -7%
- inhibition at 10 µM (Adenosine A2A [11]): 91%
- inhibition at 10 µM (Chemokine CXCR2 (IL-8RB)): 7%
- inhibition at 10 µM [12]: 43%
- inhibition at 10 µM [13]: 55%
